From patent US20100292222A1, “CHEMICAL COMPOUNDS 751” (ASTRAZENECA AB, priority 2009, published 2010) come the findings set out here.

Broadly, the IC50 is the concentration needed to halve the response being measured. A high value points to weaker potency.

For this experiment, the target named is T1, Androgen Receptor (AR) (Homo sapiens, UniProt P10275, T878A).
T1 construct: cell based immuno-fluorescence assay using the LNCaP prostate epithelial cell line; host or cells: LNCaP clone FGC prostate carcinoma cells
T1 sequence (P10275 1-920 T878A): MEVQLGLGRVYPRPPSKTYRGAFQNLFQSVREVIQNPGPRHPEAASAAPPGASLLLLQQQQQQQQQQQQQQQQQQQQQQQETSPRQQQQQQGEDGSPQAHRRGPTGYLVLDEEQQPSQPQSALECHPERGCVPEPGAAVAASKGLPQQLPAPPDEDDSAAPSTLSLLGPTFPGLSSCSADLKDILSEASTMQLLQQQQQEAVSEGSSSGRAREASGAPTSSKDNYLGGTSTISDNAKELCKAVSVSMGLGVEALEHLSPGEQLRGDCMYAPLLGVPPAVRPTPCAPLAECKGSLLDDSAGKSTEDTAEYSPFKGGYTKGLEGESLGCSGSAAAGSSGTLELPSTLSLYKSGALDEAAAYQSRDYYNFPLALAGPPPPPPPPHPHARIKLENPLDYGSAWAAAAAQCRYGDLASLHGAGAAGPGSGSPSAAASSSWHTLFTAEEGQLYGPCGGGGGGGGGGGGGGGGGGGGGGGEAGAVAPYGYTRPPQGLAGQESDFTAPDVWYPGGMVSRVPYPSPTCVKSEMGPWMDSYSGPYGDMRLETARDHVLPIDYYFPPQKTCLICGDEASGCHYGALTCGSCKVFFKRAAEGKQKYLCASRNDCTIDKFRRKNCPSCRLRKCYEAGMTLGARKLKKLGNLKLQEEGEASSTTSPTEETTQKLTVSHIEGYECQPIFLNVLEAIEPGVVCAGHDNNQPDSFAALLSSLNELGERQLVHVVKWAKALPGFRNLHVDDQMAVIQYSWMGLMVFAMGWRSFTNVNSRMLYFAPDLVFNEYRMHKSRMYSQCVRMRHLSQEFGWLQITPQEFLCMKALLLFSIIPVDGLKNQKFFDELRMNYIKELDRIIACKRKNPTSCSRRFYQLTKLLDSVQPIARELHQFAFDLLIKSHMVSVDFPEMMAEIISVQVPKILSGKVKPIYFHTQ
The experiment is described as follows: LNCaP Androgen Receptor Down-Regulation Cell Assay. It is filed as cell-based. Conditions: LNCaP prostate carcinoma cell line; 20-22 hours incubation; immunofluorescence; 50% reduction of the AR signal. The method, then: The ability of compounds to reduce Androgen Receptor (AR) numbers was assessed in a cell based immuno-fluorescence assay using the LNCaP prostate epithelial cell line.
This immunofluorescence end point assay measures the ability of a test compound to down-regulate and reduce measured levels of the AR in the LNCaP prostate carcinoma cell line (LNCaP clone FGC (CRL-1740) obtained from the American Type Culture Collection (ATCC)).
LNCaP cells were cultured in Growth Medium (phenol red free Roswell Park Memorial Institute (RPMI) 1640 (Invitrogen Code no. 11835-063) containing 2 mM L-Glutamine (Invitrogen Code no. 25030-024) and 1% (v/v) Penicillin/Streptomycin (10000 units/ml Penicillin and 10000 μg/ml of Streptomycin utilising penicillin G (sodium salt) and streptomycin sulphate: prepared in normal saline, Invitrogen Code no. 15140122) and 10% (v/v) foetal bovine serum (FBS)) in a 5% CO2 air incubator at 37° C. Cells for assay were harvested from T175 stock flasks by washing once in PBS (phosphate buffered saline, pH 7.4) (Invitrogen Code no. 14190-094) and harvested using 5 mls of 1× Trypsin/ethylaminediaminetetraacetic acid (EDTA) (10× Trypsin-EDTA, 5.0 g/L Trypsin, 2.0 g/L of EDTA•4Na and 8.5 g/L of NaCl, without Phenol Red, Invitrogen Code no. 15400-054) diluted in PBS solution. A 5 ml volume of Growth Medium was added to each flask (as above except that 5% (v/v) charcoal stripped FBS (HyClone Code no. SH30068.03) was included instead of 10% (v/v) FBS). Cells were syringed at least twice using a sterile 18G×1.5″ (1.2×40 mm) broad gauge needle and cell density was measured using a haemocytometer. Cells were further diluted in Growth Medium plus 5% (v/v) charcoal stripped FBS and seeded at a density of 6.5×10^3 cells per well (in 90 ul) into transparent, black, tissue culture treated 96 well plates (Packard, No. 6005182).
Test data reported herein was generated using two different compounds preparation and dosing methods. In method (1) a 10 mM compound stock solution in 100% (v/v) DMSO was serially diluted in 4-fold steps in 100% (v/v) DMSO using a Thermo Scientific Matrix SerialMate. The diluted compounds were then further diluted 1 in 30 in assay media using a Thermo Scientific Matrix PlateMate and a 10 μl aliquot of this dilution was dosed to cells manually using a multi-channel pipette. In method (2) starting with a 10 mM compound stock solution, the Labcyte Echo 550 was used to generate a compound concentration response set diluted in 30 μl of assay media. The Echo 550 is a liquid handler that uses acoustic technology to perform direct microplate-to-microplate transfers of DMSO compound solutions. The system can be programmed to transfer volumes as low as […] in multiple increments between microplates and in so doing generates a serial dilution of compound which is then back-filled to normalise the DMSO is concentration across the dilution range. A 10 μl volume of diluted compound is then dosed to cells using a Thermo Scientific Matrix PlateMate.
Plates were incubated overnight at 37° C., 5% CO2. Wells were then dosed with compound prepared by one of the 2 methods above and further incubated for 20-22 hours at 37° C., 5% CO2. Plates were fixed by the addition of 20 μl of 10% (v/v) formaldehyde solution (in PBS) to each well (final formaldehyde conc.=1.67% (v/v)) and left at room temperature for 10 mins. This fixative solution was removed and cells were washed with 250 μl of PBS/0.05% (v/v) Tween 20 (PBST) using an automated plate washer. This process was then repeated twice more.
Immunostaining was performed at room temperature. Cells were permeabilised by the addition of 35 μl of PBS containing 0.5% Tween 20 and incubated for 1 hour at room temperature. Permeabilisation solution was removed and cells were washed with 250 μl of PBST using an automated plate washer. This process was then repeated twice more. […]
As for `CC(=O)N1CCCN(CCOc2ccc(C3CCN(c4ccc5nnc(C(F)(F)F)n5n4)CC3)cc2)CC1` [Example 14, 6-(4-{4-[2-(4-acetyl-1,4-diazepan-1-yl)ethoxy]phenyl}piperidin-1-yl)-3-(trifluoromethyl)[1,2,4]-triazolo[4,3-b]pyridazine], the midpoint of inhibition, the IC50, lay at 160 nM.
The molecule `CCN1CCN(CCCOc2ccc(C3CCN(c4ccc5nnc(C(F)(F)F)n5n4)CC3)cc2)CC1=O` [Example 15, 1-ethyl-4-[3-(4-{1-[3-(trifluoromethyl)[1,2,4]triazolo[4,3-b]pyridazin-6-yl]piperidin-4-yl}phenoxy)propyl]piperazin-2-one] yielded an IC50 of 240 nM.
In turn, `CC(C)N1CCN(CCCOc2ccc(C3CCN(c4ccc5nnc(C(F)(F)F)n5n4)CC3)cc2)CC1=O` [Example 16, 1-(1-methylethyl)-4-[3-(4-{1-[3-(trifluoromethyl)[1,2,4]triazolo[4,3-b]pyridazin-6-yl]piperidin-4-yl}phenoxy)propyl]piperazin-2-one] displayed an IC50 of 610 nM.
Then `COCCN1CCN(CCCOc2ccc(C3CCN(c4ccc5nnc(C(F)(F)F)n5n4)CC3)cc2)CC1=O` [Example 17, 1-(2-methoxyethyl)-4-[3-(4-{1-[3-(trifluoromethyl)[1,2,4]triazolo[4,3-b]pyridazin-6-yl]piperidin-4-yl}phenoxy)propyl]piperazin-2-one], with 530 nM.
Then `CCN1CCN(CCOc2ccc(C3CCN(c4ccc5nnc(C(F)(F)F)n5n4)CC3)cc2)CC1=O` [Example 18, 1-ethyl-4-[2-(4-{1-[3-(trifluoromethyl)[1,2,4]triazolo[4,3-b]pyridazin-6-yl]piperidin-4-yl}phenoxy)ethyl]piperazin-2-one], with 310 nM; and `CC(C)N1CCN(CCOc2ccc(C3CCN(c4ccc5nnc(C(F)(F)F)n5n4)CC3)cc2)CC1=O` [Example 19, 1-(1-methylethyl)-4-[2-(4-{1-[3-(trifluoromethyl)[1,2,4]triazolo[4,3-b]pyridazin-6-yl]piperidin-4-yl}phenoxy)ethyl]piperazin-2-one], with 710 nM; and `COCCN1CCN(CCOc2ccc(C3CCN(c4ccc5nnc(C(F)(F)F)n5n4)CC3)cc2)CC1=O` [Example 20, 1-(2-methoxyethyl)-4-[2-(4-{1-[3-(trifluoromethyl)[1,2,4]triazolo[4,3-b]pyridazin-6-yl]piperidin-4-yl}phenoxy)ethyl]piperazin-2-one], with 570 nM.
In the case of `O=C(CO)N1CCN(CCOc2ccc(C3CCN(c4ccc5nnc(C(F)(F)F)n5n4)CC3)cc2)CC1` [Example 21, 2-oxo-2-{4-[2-(4-{1-[3-(trifluoromethyl)[1,2,4]triazolo[4,3-b]pyridazin-6-yl]piperidin-4-yl}phenoxy)ethyl]piperazin-1-yl]ethanol], the IC50 came to 1800 nM.
As for `COCC(=O)N1CCN(CCOc2ccc(C3CCN(c4ccc5nnc(C(F)(F)F)n5n4)CC3)cc2)CC1` [Example 22, 6-[4-(4-{2-[4-(methoxyacetyl)piperazin-1-yl]ethoxy}phenyl)piperidin-1-yl]-3-(trifluoromethyl)[1,2,4]triazolo[4,3-b]pyridazine], the figure is 1500 nM.
`C[C@H](O)C(=O)N1CCN(CCOc2ccc(C3CCN(c4ccc5nnc(C(F)(F)F)n5n4)CC3)cc2)CC1` [Example 23, (2S)-1-oxo-1-{4-[2-(4-{1-[3-(trifluoromethyl)[1,2,4]triazolo[4,3-b]pyridazin-6-yl]piperidin-4-yl}phenoxy)ethyl]piperazin-1-yl}propan-2-ol]: inhibition was half-maximal at 900 nM (IC50).
Then `C[C@@H](O)C(=O)N1CCN(CCOc2ccc(C3CCN(c4ccc5nnc(C(F)(F)F)n5n4)CC3)cc2)CC1` [Example 24, (2R)-1-oxo-1-{4-[2-(4-{1-[3-(trifluoromethyl)[1,2,4]triazolo[4,3-b]pyridazin-6-yl]piperidin-4-yl}phenoxy)ethyl]piperazin-1-yl}propan-2-ol], with 1700 nM.
